Laboratory results reported in patent US4468511A, “C-20- And C-23-Modified macrolide derivatives” (Eli Lilly and Company, priority 1983, dated 1984).
In brackets after ≈: the same amount, converted by molar mass. Where two headings read alike, the source gives them in different places.

How the values were obtained:
Type in all cases: cell-based
Escherichia coli EC14 = assay: MIC, standard agar-dilution assay
Method: (§1) Certain of the derivatives are active against some gram-negative bacteria, such as Pasteurella species. The MIC's in Table II were determined by standard agar-dilution assays. The MIC's in Table III were obtained using a conventional broth-dilution microtiter test.

Escherichia coli TEM = assay: MIC, standard agar-dilution assay
Method: as §1

[1] = system: Klebsiella pneumoniae KAE; assay: MIC, standard agar-dilution assay; conditions: agar-dilution; Klebsiella pneumoniae KAE; read-out: MIC
Method: as §1

[2] = system: Staphylococcus aureus V41; assay: MIC, standard agar-dilution assay; conditions: Staphylococcus aureus, V41
Method: as §1

[3] = system: Staphylococcus aureus X1.1; assay: MIC, standard agar-dilution assay
Method: as §1

[4] = system: Streptococcus Group D X66; assay: MIC, standard agar-dilution assay
Method: as §1

[5] = system: Streptococcus pneumoniae Park I; assay: MIC, standard agar-dilution assay
Method: as §1

[6] = system: Streptococcus pyogenes 9960; assay: MIC, standard agar-dilution assay
Method: as §1

[7] = system: Streptococcus pyogenes C203; assay: MIC, standard agar-dilution assay
Method: as §1

[8] = system: Haemophilus influenzae 76; assay: MIC, standard agar-dilution assay
Method: (§2) The MIC's in Table II were determined by standard agar-dilution assays. The MIC's in Table III were obtained using a conventional broth-dilution microtiter test.

[9] = system: Haemophilus influenzae C.L.; assay: MIC, standard agar-dilution assay
Method: as §2

[10] = system: Staphylococcus aureus X400; assay: MIC, standard agar-dilution assay
Method: as §2

[11] = system: Staphylococcus epidermidis EPI2; assay: MIC, standard agar-dilution assay
Method: as §2

[12] = system: Staphylococcus aureus S13E; assay: microbe, parasite or virus in culture
Method: as §2

[13] = system: Staphylococcus epidermidis EPI1; assay: microbe, parasite or virus in culture; conditions: Staphylococcus epidermidis, EPI1
Method: as §2

[14] = system: Klebsiella pneumoniae X26; assay: MIC, standard agar-dilution assay
Method: as §1

[15] = system: Mycoplasma gallisepticum 34159; assay: MIC, conventional broth-dilution microtiter test; conditions: Mycoplasmoides gallisepticum; broth-dilution microtiter; Mycoplasma gallisepticum 34159, Resistant strain; read-out: MIC
Method: as §1

[16] = system: Mycoplasma gallisepticum 41313; assay: MIC, conventional broth-dilution microtiter test; conditions: Mycoplasmoides gallisepticum; broth-dilution microtiter; Mycoplasma gallisepticum 41313, Resistant strain; read-out: MIC
Method: as §1

Mycoplasma gallisepticum = assay: MIC, conventional broth-dilution microtiter test; conditions: Mycoplasmoides gallisepticum
Method: as §1

Mycoplasma hyorhinis = assay: MIC, conventional broth-dilution microtiter test
Method: as §1

[17] = system: Pasteurella hemolytica 22C; assay: MIC, conventional broth-dilution microtiter test
Method: as §1

[18] = system: Pasteurella hemolytica 23C; assay: MIC, conventional broth-dilution microtiter test
Method: as §1

[19] = system: Pasteurella hemolytica 41D; assay: MIC, conventional broth-dilution microtiter test
Method: as §1

[20] = system: Pasteurella multocida 17E; assay: MIC, conventional broth-dilution microtiter test; conditions: broth-dilution microtiter; Pasteurella multocida 17E, Bovine isolate; read-out: MIC
Method: as §1

[21] = system: Pasteurella multocida 22A; assay: MIC, conventional broth-dilution microtiter test; conditions: broth-dilution microtiter; Pasteurella multocida 22A; read-out: MIC
Method: as §1

[22] = system: Pasteurella multocida 40G; assay: MIC, conventional broth-dilution microtiter test; conditions: broth-dilution microtiter; Pasteurella multocida 40G; read-out: MIC
Method: as §1

[23] = system: Pasteurella multocida 60A; assay: MIC, conventional broth-dilution microtiter test; conditions: broth-dilution microtiter; Pasteurella multocida 60A, Avian isolate; read-out: MIC
Method: as §1

[24] = system: Pasteurella multocida 68C; assay: MIC, conventional broth-dilution microtiter test; conditions: broth-dilution microtiter; Pasteurella multocida 68C; read-out: MIC
Method: as §1

Staphylococcus aureus = assay: MIC, conventional broth-dilution microtiter test
Method: as §1

Streptococcus sp. 80 = assay: MIC, conventional broth-dilution microtiter test; conditions: broth-dilution microtiter; Streptococcus sp. 80; read-out: MIC
Method: as §1

[25] = agar-dilution, Escherichia coli EC14, read-out: MIC
[26] = agar-dilution, Escherichia coli TEM, read-out: MIC
[27] = Staphylococcus epidermidis, EPI2
[28] = agar-dilution, Streptococcus Group D X66, read-out: MIC
[29] = agar-dilution, Streptococcus 9960, read-out: MIC
[30] = broth-dilution microtiter, Mycoplasma hyorhinis, read-out: MIC
[31] = broth-dilution microtiter, Pasteurella hemolytica 22C, read-out: MIC
[32] = broth-dilution microtiter, Pasteurella hemolytica 23C, read-out: MIC
[33] = broth-dilution microtiter, Pasteurella hemolytica 41D, read-out: MIC
[34] = broth-dilution microtiter, read-out: MIC
[35] = agar-dilution, Klebsiella pneumoniae X26, read-out: MIC

SMILES	MIC (Escherichia coli EC14; [25])	MIC (Escherichia coli TEM; [26])	MIC [1]	MIC [2]	MIC ([3]; Staphylococcus aureus, X1.1)	MIC [4]	MIC ([5]; Streptococcus pneumoniae)	MIC ([8]; Haemophilus influenzae, 76)	MIC ([9]; Haemophilus influenzae)	MIC ([10]; Staphylococcus aureus, X400)	MIC [11, 27]	MIC [12]	MIC [13]	MIC [6, 29]	MIC [15]	MIC [16]	MIC [20]	MIC [21]	MIC [22]	MIC [23]	other results
CCC1OC(=O)CC(O)C(C)C(OC2OC(C)C(O)C(N(C)C)C2O)C(CCN(c2ccccc2)c2ccccc2)CC(C)C(=O)C=CC(C)=CC1CO (stereo not drawn) [Compound 56, 20-Diphenylamino-20-deoxy-20-dihydro-OMT]	> 128 µg/mL	> 128 µg/mL	> 128 µg/mL	2 µg/mL (≈ 2.66 µM)	4 µg/mL (≈ 5.33 µM)	4 µg/mL (≈ 5.33 µM)	1 µg/mL (≈ 1.33 µM)	16 µg/mL (≈ 21.3 µM)	32 µg/mL (≈ 42.6 µM)	4 µg/mL (≈ 5.33 µM)	1 µg/mL (≈ 1.33 µM)	2 µg/mL (≈ 2.66 µM)	2 µg/mL (≈ 2.66 µM)	–	–	–	–	–	–	–	MIC [6]; 9960: 8 µg/mL (≈ 10.7 µM); MIC ([7]; Streptococcus pyogenes, C203): 2 µg/mL (≈ 2.66 µM)
CCC1OC(=O)CC(O)C(C)C(OC2OC(C)C(O)C(N(C)C)C2O)C(CCN2C(=O)c3ccccc3C2=O)CC(C)C(=O)C=CC(C)=CC1C (stereo not drawn) [Compound 22, 20-N-Phthalimido-20-deoxy-20-dihydro-DOMT]	> 128 µg/mL	128 µg/mL (≈ 180 µM)	> 128 µg/mL	8 µg/mL (≈ 11.2 µM)	8 µg/mL (≈ 11.2 µM)	–	4 µg/mL (≈ 5.61 µM)	128 µg/mL (≈ 180 µM)	128 µg/mL (≈ 180 µM)	32 µg/mL (≈ 44.9 µM)	4 µg/mL (≈ 5.61 µM)	8 µg/mL (≈ 11.2 µM)	8 µg/mL (≈ 11.2 µM)	16 µg/mL (≈ 22.4 µM)	50 µg/mL (≈ 70.1 µM)	50 µg/mL (≈ 70.1 µM)	50 µg/mL (≈ 70.1 µM)	50 µg/mL (≈ 70.1 µM)	50 µg/mL (≈ 70.1 µM)	50 µg/mL (≈ 70.1 µM)	MIC ([14]; Klebsiella pneumoniae, X26): 32 µg/mL (≈ 44.9 µM); MIC [4, 28]: 16 µg/mL (≈ 22.4 µM); MIC (Mycoplasma gallisepticum): 0.78 µg/mL (≈ 1.09 µM); MIC (Mycoplasma hyorhinis; [30]): 25 µg/mL (≈ 35.1 µM); MIC [17, 31]: 50 µg/mL (≈ 70.1 µM); MIC [18, 32]: 50 µg/mL (≈ 70.1 µM); MIC [19, 33]: 50 µg/mL (≈ 70.1 µM); MIC [24]: 25 µg/mL (≈ 35.1 µM); MIC (Staphylococcus aureus; [34]): 25 µg/mL (≈ 35.1 µM); MIC (Streptococcus sp. 80): 6.25 µg/mL (≈ 8.77 µM)
CCC1CC(C)C(=O)C=CC(C)=CC(COC(C)=O)C(CC)OC(=O)CC(O)C(C)C1OC1OC(C)C(OC(C)=O)C(N(C)C)C1OC(C)=O (stereo not drawn) [Compound 40, 2',4',23-Tri-O-acetyl-20-deoxy-20-dihydro-OMT]	> 128 µg/mL	> 128 µg/mL	> 128 µg/mL	4 µg/mL (≈ 5.63 µM)	4 µg/mL (≈ 5.63 µM)	–	4 µg/mL (≈ 5.63 µM)	–	–	–	4 µg/mL (≈ 5.63 µM)	4 µg/mL (≈ 5.63 µM)	4 µg/mL (≈ 5.63 µM)	8 µg/mL (≈ 11.3 µM)	> 50 µg/mL	> 50 µg/mL	25 µg/mL (≈ 35.2 µM)	25 µg/mL (≈ 35.2 µM)	25 µg/mL (≈ 35.2 µM)	12.5 µg/mL (≈ 17.6 µM)	MIC [14, 35]: 16 µg/mL (≈ 22.5 µM); MIC [4, 28]: 8 µg/mL (≈ 11.3 µM); MIC ([7]; agar-dilution, Streptococcus pyogenes C203, read-out: MIC): 16 µg/mL (≈ 22.5 µM); MIC ([10]; agar-dilution, Staphylococcus aureus X400, Methicillin-resistant strain, read-out: MIC): 16 µg/mL (≈ 22.5 µM); MIC (Mycoplasma gallisepticum): 6.25 µg/mL (≈ 8.8 µM); MIC (Mycoplasma hyorhinis; Mycoplasma): 50 µg/mL (≈ 70.4 µM); MIC ([17]; Pasteurella, 22C): 50 µg/mL (≈ 70.4 µM); MIC ([18]; Pasteurella, 23C): 50 µg/mL (≈ 70.4 µM); MIC ([19]; Pasteurella, 41D): 50 µg/mL (≈ 70.4 µM); MIC [24]: 12.5 µg/mL (≈ 17.6 µM); MIC (Staphylococcus aureus): 6.25 µg/mL (≈ 8.8 µM); MIC (Streptococcus sp. 80): 12.5 µg/mL (≈ 17.6 µM)
CCC1OC(=O)CC(O)C(C)C(OC2OC(C)C(O)C(N(C)C)C2O)C(CCN2C(=O)c3ccccc3C2=O)CC(C)C(=O)C=CC(C)=CC1CO (stereo not drawn) [Compound 6, 20-N-Phthalimido-20-deoxy-20-dihydro-OMT]	> 128 µg/mL	–	> 128 µg/mL	8 µg/mL (≈ 11 µM)	–	16 µg/mL (≈ 22 µM)	–	64 µg/mL (≈ 87.8 µM)	64 µg/mL (≈ 87.8 µM)	16 µg/mL (≈ 22 µM)	–	8 µg/mL (≈ 11 µM)	4 µg/mL (≈ 5.49 µM)	–	50 µg/mL (≈ 68.6 µM)	50 µg/mL (≈ 68.6 µM)	50 µg/mL (≈ 68.6 µM)	50 µg/mL (≈ 68.6 µM)	50 µg/mL (≈ 68.6 µM)	50 µg/mL (≈ 68.6 µM)	MIC (Escherichia coli TEM; Escherichia coli): 64 µg/mL (≈ 87.8 µM); MIC [14, 35]: 16 µg/mL (≈ 22 µM); MIC ([3]; agar-dilution, Staphylococcus aureus X1.1, read-out: MIC): 4 µg/mL (≈ 5.49 µM); MIC ([5]; agar-dilution, Streptococcus pneumoniae Park I, read-out: MIC): 2 µg/mL (≈ 2.74 µM); MIC [6]; 9960: 16 µg/mL (≈ 22 µM); MIC ([11]; agar-dilution, Staphylococcus epidermidis EPI2, read-out: MIC): 2 µg/mL (≈ 2.74 µM); MIC (Mycoplasma gallisepticum; broth-dilution microtiter, Mycoplasma gallisepticum, read-out: MIC): 3.12 µg/mL (≈ 4.28 µM); MIC (Mycoplasma hyorhinis; [30]): 50 µg/mL (≈ 68.6 µM); MIC [17, 31]: 50 µg/mL (≈ 68.6 µM); MIC [18, 32]: 50 µg/mL (≈ 68.6 µM); MIC [19, 33]: 50 µg/mL (≈ 68.6 µM); MIC [24]: 25 µg/mL (≈ 34.3 µM); MIC (Staphylococcus aureus; [34]): 25 µg/mL (≈ 34.3 µM); MIC (Streptococcus sp. 80): 3.12 µg/mL (≈ 4.28 µM)
CCC1OC(=O)CC(O)C(C)C(OC2OC(C)C(O)C(N(C)C)C2O)C(CCO)CC(C)C(=O)C=CC(C)=CC1COC(=O)CCc1ccccc1 (stereo not drawn) [Compound 52, 20-Dihydro-23-O-phenylpropionyl-OMT]	–	8 µg/mL (≈ 10.9 µM)	> 128 µg/mL	0.5 µg/mL (≈ 0.683 µM)	0.5 µg/mL (≈ 0.683 µM)	1 µg/mL (≈ 1.37 µM)	0.25 µg/mL (≈ 0.342 µM)	–	–	1 µg/mL (≈ 1.37 µM)	0.5 µg/mL (≈ 0.683 µM)	0.5 µg/mL (≈ 0.683 µM)	0.5 µg/mL (≈ 0.683 µM)	2 µg/mL (≈ 2.73 µM)	–	–	–	–	–	–	MIC (Escherichia coli EC14; Escherichia coli, EC14): 64 µg/mL (≈ 87.4 µM); MIC ([14]; Klebsiella pneumoniae, X26): 4 µg/mL (≈ 5.47 µM); MIC ([7]; Streptococcus pyogenes, C203): 0.25 µg/mL (≈ 0.342 µM); MIC ([8]; agar-dilution, Haemophilus influenzae 76, Ampicillin-resistant strain, read-out: MIC): 8 µg/mL (≈ 10.9 µM); MIC ([9]; agar-dilution, Haemophilus influenzae C.L., Ampicillin-sensitive strain, read-out: MIC): 8 µg/mL (≈ 10.9 µM)
